Laboratory results from patent publication US6413948B1, “Pharmaceutical compositions and methods of effecting a neuronal activity in an animal using naaladase inhibitors” (Guilford Pharmaceuticals Inc., priority 1996, dated 2002).

Test system: rats which had sustained dynorphin-induced spinal cord injury
Assay: In vivo assay on dynorphin-induced spinal cord injury
Design: species or system Sprague-Dawley rats
Description: Dynorphin-induced spinal cord injury was performed according to Long et al., JPET, Vol. 269, No. 1, pp. 358-366 (1993). In brief, spinal subarachnoid injections were delivered using 30-gauge needles inserted between the L4-L5 vertebrae of male Sprague-Dawley rats (300-350 g). The rats were anesthetized with halothane and dorsal midline incisions were made immediately rostral to the pelvic girdle. By using the vertebral processes as guides, the needle was advanced to pass into the subarachnoid space surrounding the cauda equina. Correct needle pement was verified by CSF from the needle after its insertion. […] After injections, the incisions were treated with the topical antibacterial furazolidone and closed with wound clips. […]
Neurological function was evaluated using a 5-point ordinal scale, with scores being assigned as follows: 4=normal motor function; 3=mild paraparesis, with the ability to support weight and walk with impairment; 2=paraparesis, with the ability to make walking movements without fully supporting weight; 1=severe paraparesis, in which rats could make limited hind limb movement, but not walking movement; and 0=flaccid paralysis, with complete absence of any hind limb movement. […]
Differences in the neurological scores among treatment groups were determined by means of the Mann-Whitney U test or the Kruskal-Wallis test.

O=C(O)CCC(CP(=O)(O)O)C(=O)O (centres unmarked) [2-(phosphonomethyl)pentanedioic acid] was tested, and the “motor scores (in words)” value (co-administered with dynorphin A, 24-hour post-injection, vs vehicle, p<0.05) was “significant improvement in motor scores” and the rats ambulatory (co-treated with dynorphin A, 24 hours post-injection, 15 rats) was 73%.
